From patent publication US10065990B2, “Cyclic peptide compound, and preparation method, pharmaceutical composition and use thereof” (HANGZHOU GUANYU BIO-MEDICAL CO., LTD, priority 2013, dated 2018)

Legend:
[1] = biological target: T1, HDAC7 (Homo sapiens, UniProt Q8WUI4); experiment: HDAC biochemical activity measurement (fluorescent substrate deacetylation);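 further: fluorogenic deacetylation assay using acetyl-lysine substrate at 20 µM, enzyme and compound incubated 30 min at 37 °C, then developer added, fluorescence read at 360/460 nm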; conditions: HDAC7; 37° C. 30 minutes
T1 sequence (Q8WUI4 1-952): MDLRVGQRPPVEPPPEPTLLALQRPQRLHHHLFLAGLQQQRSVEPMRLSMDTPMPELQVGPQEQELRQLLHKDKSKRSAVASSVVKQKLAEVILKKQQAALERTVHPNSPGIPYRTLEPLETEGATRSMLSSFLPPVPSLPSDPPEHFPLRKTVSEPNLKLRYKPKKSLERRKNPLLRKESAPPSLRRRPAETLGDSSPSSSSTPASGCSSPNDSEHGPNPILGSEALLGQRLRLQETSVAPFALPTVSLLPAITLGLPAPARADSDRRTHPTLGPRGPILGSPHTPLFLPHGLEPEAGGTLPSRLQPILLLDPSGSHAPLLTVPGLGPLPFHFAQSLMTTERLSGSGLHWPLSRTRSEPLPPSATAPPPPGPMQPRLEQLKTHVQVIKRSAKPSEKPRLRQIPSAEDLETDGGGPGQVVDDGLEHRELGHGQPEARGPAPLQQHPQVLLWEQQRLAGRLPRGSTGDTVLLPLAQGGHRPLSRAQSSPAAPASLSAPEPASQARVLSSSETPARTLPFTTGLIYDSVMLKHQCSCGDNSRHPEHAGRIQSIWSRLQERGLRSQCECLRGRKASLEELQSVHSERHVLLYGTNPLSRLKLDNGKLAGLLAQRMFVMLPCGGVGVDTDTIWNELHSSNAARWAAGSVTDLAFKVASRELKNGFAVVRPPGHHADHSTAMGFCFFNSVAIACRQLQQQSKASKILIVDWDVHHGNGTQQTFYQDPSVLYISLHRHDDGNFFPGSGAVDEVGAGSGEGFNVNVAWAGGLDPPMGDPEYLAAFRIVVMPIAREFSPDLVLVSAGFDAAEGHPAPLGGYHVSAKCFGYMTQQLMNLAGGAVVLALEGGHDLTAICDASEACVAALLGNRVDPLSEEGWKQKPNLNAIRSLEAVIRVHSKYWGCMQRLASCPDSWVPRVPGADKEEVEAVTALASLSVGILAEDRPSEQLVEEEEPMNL

[2] = system: lncap (prostate cancer cells); experiment: MTT cancer cell growth inhibition; type: cell-based; conditions: Homo sapiens, LNCaP, 72 h, lncap cells, MTT, 72 hours incubation; read-out: GI50 lnca
Source text: (§1) MTT assay principle is yellow MTT can penetrate membrane into the cell, succinic dehydrogenase of the mitochondria in living cells can make exogenous MTT reduction of insoluble in water of blue-violet acicular formazan for crystallization and deposition in the cell, crystallization can be dissolved dimethyl sulfoxide (DMSO) solution, detected its absorbance at 490 nm/570 nm wavelength by enzyme-linked immunosorbent assay, which can reflect the number of cells.
(§2) Using DMEM+10% FBS culture medium or using 1640+10% FBS culture, respectively.
(§3) a) Cells were seeded in 96-well plates with the inoculation of 1500/well, 190 μl/hole, 37° C., 5% of CO2 incubator overnight;
(§4) b) The next day each well was added 10 μl of different drugs. The final concentration of drug was 10^−5˜10^−10M, three parallel holes; 37° C., 5% CO2 culture incubator for 72 hours incubation;
(§5) c) Per well was added 20 μl 5 mg/ml of MTT, 37° C., 5% CO2 culture incubator for 4 hours incubation;
(§6) d) The supernatant was discarded. Each well was added 100 μl of DMSO and oscillation;
(§7) e) 570 nm readings. Calculate cell viability. GI50 calculation based on the results.

[3] = system: Hela (human cervical cancer cells); experiment: MTT cancer cell growth inhibition; type: cell-based; conditions: Homo sapiens, HeLa, 72 h, Hela cells, MTT, 72 hours incubation; read-out: GI50 Hela
Source text: as §1, §2, §3, §4, §5, §6, §7

[4] = system: KBM5-T315I (human chronic myelogenous leukemia); experiment: MTT cancer cell growth inhibition; type: cell-based; conditions: Homo sapiens, 72 h, MTT, 72 hours incubation, KBM5-T315I cells; read-out: GI50 KBM5-T315I
Source text: as §1, §2, §3, §4, §5, §6, §7

[5] = system: Huh-7 (human hepatoma cells); experiment: MTT cancer cell growth inhibition; type: cell-based; conditions: Homo sapiens, Huh-7, 72 h, MTT, 72 hours incubation, Huh-7 cells; read-out: GI50 Huh-7
Source text: as §1, §2, §3, §4, §5, §6, §7

[6] = system: HT1080 (human fibrosarcoma cells); experiment: MTT cancer cell growth inhibition; type: cell-based; conditions: Homo sapiens, HT-1080, 72 h, HT1080 cells, MTT, 72 hours incubation; read-out: GI50 HT1
Source text: as §1, §2, §3, §4, §5, §6, §7

[7] = system: U937 (human leukemia cells); experiment: MTT cancer cell growth inhibition; type: cell-based; conditions: Homo sapiens, U-937, 72 h, U937 cells, MTT, 72 hours incubation; read-out: GI50 U93
Source text: as §1, §2, §3, §4, §5, §6, §7

[8] = system: PANC-1 (Pac-1, human pancreatic cancer cells); experiment: MTT cancer cell growth inhibition; type: cell-based; conditions: Homo sapiens, PANC-1, 72 h, PANC-1 cells, MTT, 72 hours incubation; read-out: GI50 PAN
Source text: as §1, §2, §3, §4, §5, §6, §7

[9] = system: HCC827 (human non-small cell lung cancer cells); experiment: MTT cancer cell growth inhibition; type: cell-based; conditions: Homo sapiens, HCC827, 72 h, MTT, 72 hours incubation, HCC827 cells; read-out: GI50 HCC827
Source text: as §1, §2, §3, §4, §5, §6, §7

[10] = system: KBM-5 (human chronic myelogenous leukemia); experiment: MTT cancer cell growth inhibition; type: cell-based; conditions: Homo sapiens, KBM5, 72 h, MTT, 72 hours incubation, KBM-5 cells; read-out: GI50 KBM-5
Source text: as §1, §2, §3, §4, §5, §6, §7

[11] = system: K562 (human leukemia cells); experiment: MTT cancer cell growth inhibition; type: cell-based; conditions: Homo sapiens, K562, 72 h, MTT, 72 hours incubation, K562 cells; read-out: GI50 K562
Source text: as §1, §2, §3, §4, §5, §6, §7

[12] = system: A549 (human lung cancer cells); experiment: MTT cancer cell growth inhibition; type: cell-based; conditions: Homo sapiens, A549, 72 h, A549 cells, MTT, 72 hours incubation; read-out: GI50 A54
Source text: as §1, §2, §3, §4, §5, §6, §7

[13] = system: N-87 (human gastric cancer cells); experiment: MTT cancer cell growth inhibition; type: cell-based; conditions: Homo sapiens, 72 h, MTT, 72 hours incubation, N-87 cells; read-out: GI50 N-87
Source text: as §1, §2, §3, §4, §5, §6, §7

[14] = system: Bel-7402 (human hepatoma cells); experiment: MTT cancer cell growth inhibition; type: cell-based; conditions: Homo sapiens, Bel-7402, 72 h, MTT, 72 hours incubation, Bel-7402 cells; read-out: GI50 Bel-7402
Source text: as §1, §2, §3, §4, §5, §6, §7

[15] = system: DU145 (human prostate cancer cells); experiment: MTT cancer cell growth inhibition; type: cell-based; conditions: Homo sapiens, DU-145, 72 h, DU145 cells, MTT, 72 hours incubation; read-out: GI50 Du1
Source text: as §1, §2, §3, §4, §5, §6, §7

[16] = system: MDA-MB-231 (breast cancer cells); experiment: MTT cancer cell growth inhibition; type: cell-based; conditions: Homo sapiens, MDA-MB-231, 72 h, read-out: GI50 MDA-MB-231, MTT, 72 hours incubation, MDA-MB-231 cells
Source text: as §1, §2, §3, §4, §5, §6, §7

[17] = system: MOLT-4 (human acute lymphoblastic leukemia cells); experiment: MTT cancer cell growth inhibition; type: cell-based; conditions: Homo sapiens, MOLT-4, 72 h, MOLT-4 cells, MTT, 72 hours incubation; read-out: GI50 Mol
Source text: as §1, §2, §3, §4, §5, §6, §7

[18] = system: BGC-823 (human gastric cancer cells); experiment: MTT cancer cell growth inhibition; type: cell-based; conditions: Homo sapiens, BGC-823, 72 h, BGC-823 cells, MTT, 72 hours incubation; read-out: GI50 BG
Source text: as §1, §2, §3, §4, §5, §6, §7

[19] = system: MCF-7 (human breast cancer cells); experiment: MTT cancer cell growth inhibition; type: cell-based; conditions: Homo sapiens, MCF7, 72 h, MCF-7 cells, 72 hours incubation, read-out: GI50 MCF
Source text: as §1, §2, §3, §4, §5, §6, §7

[20] = system: SGC-7901 (human gastric cancer cells); experiment: MTT cancer cell growth inhibition; type: cell-based; conditions: Homo sapiens, SGC-7901, 72 h, MTT, 72 hours incubation, SGC-7901 cells; read-out: GI50 SGC-7901
Source text: as §1, §2, §3, §4, §5, §6, §7

[21] = system: H1975 (non-small cell lung adenocarcinoma); experiment: MTT cancer cell growth inhibition; type: cell-based; conditions: Homo sapiens, NCI-H1975, 72 h, MTT, 72 hours incubation, H1975 cells; read-out: GI50 H1975
Source text: as §1, §2, §3, §4, §5, §6, §7

C/C=C1\NC(=O)c2ccc(SC)c(n2)CNC(=O)C[C@@H](/C=C/CCSC(C)=O)OC(=O)[C@H](Cc2ccc(O)cc2)NC1=O [Compound 203]
IC50 HDAC7 [1]: no activity | GI50 [2]: 30 nM | GI50 [3]: 30 nM | GI50 [4]: 26 nM | GI50 [5]: 22 nM | GI50 [6]: 60 nM | GI50 [7]: 20 nM | GI50 [8]: 30 nM | GI50 [9]: 23 nM | GI50 [10]: 53 nM | GI50 [11]: 35 nM | GI50 [12]: 30 nM | GI50 [13]: 77 nM | GI50 [14]: 23 nM | GI50 [15]: 40 nM | GI50 [16]: 73 nM | GI50 [17]: 30 nM | GI50 [18]: 80 nM | GI50 [19]: 40 nM | GI50 [20]: 43 nM | GI50 [21]: 65 nM

C/C=C1\NC(=O)c2ccc(SC)c(n2)CNC(=O)C[C@@H](/C=C/CCSC(=O)CCCCCCC)OC(=O)[C@H](C(C)C)NC1=O [Compound 149]
IC50 HDAC7 [1]: no activity | GI50 [2]: 50 nM | GI50 [3]: 50 nM | GI50 [4]: 41 nM | GI50 [5]: 75 nM | GI50 [6]: 80 nM | GI50 [7]: 20 nM | GI50 [8]: 30 nM | GI50 [9]: 29 nM | GI50 [10]: 21 nM | GI50 [11]: 32 nM | GI50 [12]: 20 nM | GI50 [13]: 39 nM | GI50 [14]: 63 nM | GI50 [15]: 60 nM | GI50 [16]: 35 nM | GI50 [17]: 80 nM | GI50 [18]: 30 nM | GI50 [19]: 60 nM | GI50 [20]: 42 nM | GI50 [21]: 70 nM
